In patent publication EP1718623B1, “COMPOUNDS AS INHIBITORS OF CELL PROLIFERATION AND VIRAL INFECTIONS” (4SC AG, priority 2004, dated 2005):

Experiments:
[1] = tested on: peripheral blood monocyte (PBMC); test: T Lymphocyte Proliferation Assay (PHA-stimulated PBMC, BrdU incorporation ELISA); assay type: cell-based; conditions: Homo sapiens, PBMCs stimulated with 2 µg/ml phytohemoagglutinin, 72 h
Protocol: We used a nonradioactive technique for the measurement of in vitro T-cell proliferation (Messele T et al. Clinical and Diagnostic Laboratory Immunology,687-692,2002).
Peripheral blood mononuclear cells (PBMCs) were isolated from human blood obtained from volunteer donators. PBMCs were isolated by centrifugation in ACCUSPIN tubes using HISTOPAQUE.
PBMCs were stimulated with PHA and cell proliferation was measured with a Roche colorimetric BromUridin incorporation ELISA kit.
Inhibition of stimulated peripheral blood monocyte (PBMC) stimulation
PBMCs were isolated from the blood of healthy volunteers with the help of ACCUSPIN™ System Histopaque®-1077 tubes, washed and resuspended with 10^6 cells/ml in Dulbecco's modified eagles medium, containing 10 % fetal calf serum and 2 mM Glutamine.
The cells were stimulated with 2 µg/ml phytohemoagglutinin in the presence of test compound or blank vehicle for 72 h. 4 h prior to the end of the incubation period, 5-bromo-2'-desoxyuridine (BrdU) was added to label the proliferating cells. After the incubation, the cells were separated by centrifugation and the culture supernatant removed. Incorporated BrdU was quantified with the help of an enzyme-linked immunosorbent assay.
For the determination of the IC50 values (concentration of inhibitor required for 50% inhibition) at least four different inhibitor concentrations were applied. […]

20S proteasome = molecular target: T1, 20S proteasome (Homo sapiens, UniProt P28074); test: Proteasome assay (chymotryptic activity, Suc-LLVT-AMC substrate); assay type: biochemical; conditions: 30°C, 20 min
T1 construct: purchased Immatics, Tübingen
Text: Regulation of the immune response is controlled by a variety of signalling pathways such as T-cell or TNF receptor signalling (Chen G et al. Scienc,296 1634-1640,2002). To further characterize targets of compounds which we found active in the T-cell proliferation assay, we tested the compounds on a variety of targets involved in such pathways. Compounds described here are inhibitors of T-lymphocyte proliferation were active on three molecular targets: Kv1.3 ion channels and Inosine Monophosphate Dehydrogenase (IMPDH) and the human proteasome. The compounds described may act on one of these targets specifically or on several targets simultaneously.
The chymotryptic activity of the 20S proteasome (Immatics, Tübingen) was determined using a Tecan Ultra plate reader and Suc-LLVT-AMC as substrate (Bachem). […]

Kv1.3 channels = molecular target: T2, Kv1.3 channels (Mus musculus, UniProt P16390); test: Kv1.3 assay, whole-cell patch-clamp in stable transfected L929 cells; assay type: cell-based; conditions: c=20 µM; each compound tested on two different cells; steady-state current
T2 construct: expressed in transfected cells; host or cells: L929 cells
Protocol: The inhibition of Kv1.3 was measured in stable transfected cell lines expressing mouse Kv1.3 using the patch-clamp technique (Rauer H et al. J Biol Chem Vol.275, No. 2, 1201-1208, 2000), Rauer H Mol Pharmacol,50, 1625-1634, 1996, Rauer H et al. J Pharmacol, 127, 1065-1074, 1999).
Stable transfected L929 cells with Kv1.3 channels were grown in DMEM (Glutamax-I) media with 10% FCS, geneticin 330 µg/ml under 10% CO2 atmosphere.
Whole-cell patch-clamp configuration, with an external bath solution of 160 mM NaCl, 4,5 mM KCl, 1 mM MgCl, 2 mM CaCl2,5 mM HEPES, 10 mM EGTA and NaOH adjusted to pH 7. 4. Internal pipette solution for recording was 155 mM KF, 2 mM MgCl2 , 10 mM HEPES, 10 mM EGTA with KOH adjusted to pH 7.2. Currents were activated by a 200-ms voltage step from a holding potential of -80 to 40 mV every 30 s. Holding potential -80 mV.
Each compound was tested on two different cells. The cell was perfused with external bath solution (black line), then the compound was applied (c=20 µM). The resulting stedy-state current traces are shown as red lines. Example 3, 5, 6, 7, 8 are blockers.

T-lymphocyte = conditions: inhibits T-lymphocyte proliferation; Kath JC et al. 1997; cited from earlier work
Kv1.3 = Kv1.3 (Homo sapiens, UniProt P22001); conditions: blocks Kv1.3 currents; Kath JC et al. 1997; cited from earlier work
Kv1.3, sequence (P22001 whole entry): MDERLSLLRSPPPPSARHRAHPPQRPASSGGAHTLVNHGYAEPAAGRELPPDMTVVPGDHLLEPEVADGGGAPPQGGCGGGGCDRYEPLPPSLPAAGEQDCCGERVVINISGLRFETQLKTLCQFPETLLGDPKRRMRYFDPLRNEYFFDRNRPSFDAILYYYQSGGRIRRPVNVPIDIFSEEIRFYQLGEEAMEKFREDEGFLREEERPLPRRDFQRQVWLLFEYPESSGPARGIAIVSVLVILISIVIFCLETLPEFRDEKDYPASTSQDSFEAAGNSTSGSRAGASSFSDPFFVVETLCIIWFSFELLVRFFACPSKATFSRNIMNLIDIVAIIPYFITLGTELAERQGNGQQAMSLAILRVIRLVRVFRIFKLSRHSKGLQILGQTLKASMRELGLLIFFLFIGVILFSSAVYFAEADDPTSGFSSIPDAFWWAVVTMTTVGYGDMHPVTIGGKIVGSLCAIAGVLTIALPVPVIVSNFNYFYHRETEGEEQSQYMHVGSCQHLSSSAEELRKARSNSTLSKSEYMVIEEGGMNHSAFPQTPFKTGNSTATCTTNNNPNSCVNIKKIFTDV

T2 sequence (P16390 whole entry): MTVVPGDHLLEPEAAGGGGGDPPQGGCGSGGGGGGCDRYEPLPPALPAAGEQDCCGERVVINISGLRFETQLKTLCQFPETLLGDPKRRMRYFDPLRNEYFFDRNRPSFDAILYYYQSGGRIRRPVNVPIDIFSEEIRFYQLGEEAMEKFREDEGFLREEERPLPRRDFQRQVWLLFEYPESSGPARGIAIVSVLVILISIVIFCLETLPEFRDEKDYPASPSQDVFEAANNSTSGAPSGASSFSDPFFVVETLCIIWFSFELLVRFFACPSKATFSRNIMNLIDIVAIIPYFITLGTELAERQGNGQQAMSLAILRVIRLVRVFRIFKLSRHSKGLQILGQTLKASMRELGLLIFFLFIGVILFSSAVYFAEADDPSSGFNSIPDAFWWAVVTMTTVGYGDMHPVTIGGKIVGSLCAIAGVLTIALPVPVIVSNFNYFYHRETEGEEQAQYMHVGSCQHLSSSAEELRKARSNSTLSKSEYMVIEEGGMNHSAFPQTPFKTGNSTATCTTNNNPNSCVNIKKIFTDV

With `O=C(Nc1ccc(C2=N[C@H](c3ccccc3)CO2)cc1)Nc1ccc(S(=O)(=O)NCc2cc(F)c(F)c(F)c2)cc1` [Example 1, 4-{3-[4-(4-(R)-Phenyl-4,5-dihydro-oxazol-2-yl)-phenyl]-ureido}-N-(3,4,5-trifluorobenzyl)-benzenesulfonamide] the IC50 [1] was under 5000 nM and the IC50 (20S proteasome) was under 5000 nM.

With `O=C(Nc1ccc(C2=N[C@H](Cc3ccccc3)CO2)cc1)Nc1ccc(S(=O)(=O)NCc2cc(F)c(F)c(F)c2)cc1` [Example 3, 4-{3-[4-(4-(R)-Benzyl-4,5-dihydro-oxazol-2-yl)-phenyl]- -ureido}-N-(3,4,5-trifluorobenzyl)-benzenesulfonamide] the Kv1.3 block (Kv1.3 channels) was “blockers”.

`O=C(Nc1ccc(S(=O)(=O)NCc2cc(F)c(F)c(F)c2)cc1)Nc1cccc(C2=N[C@@H](Cc3ccccc3)CO2)c1` [Example 22, 4-{3-[3-(4-(S)-Benzyl-4,5-dihydro-oxazol-2-yl)-phenyl]-ureido}-N-(3,4,5-trifluorobenzyl)-benzenesulfonamide] showed an IC50 [1] of under 5000 nM.

In the case of “noxiustoxin (TIINVKCTSPKQCSKPCKELYGSSAGAKCMNGKCKCYNN; UniProt P08815 1-39, looked up)”, the IC50 (T-lymphocyte) is listed as 8 nM and the IC50 (Kv1.3) is listed as 0.2 nM.
